# Test: in vitro
# Settings: human, hela cells, % viability
smiles,measurement,setting,value
CC1Cc2cc(CCC(=O)N3CCCc4c(cnn4C)C3)ccc2O1 (stereo not drawn) [CBK282882],"viability at 28.5 h, 10 µM",,100%
O=C1c2ccccc2C(=O)N1CCOc1nccnc1-c1ccsc1 [CBK106760],"viability at 28.5 h, 10 µM",,90.4%
Cc1ccc(S(=O)(=O)Nc2ccccc2CNc2ccccn2)cc1 [CBK264198],"viability at 28.5 h, 10 µM",,91.9%
CC1=CCC2C(=O)N(C(CC(C)C)C(=O)O)C(=O)C2C1 (stereo not drawn) [CBK287172],"viability at 28.5 h, 10 µM",,94.6%
O=C(O)c1cccc2c1C(=O)N(Cc1cccnc1)C2 [CBK291193],"viability at 28.5 h, 10 µM",,119%
COc1ccc(OCCNC(=O)c2ccc(-c3cccc(N(C)C)c3)nc2N(C)C(C)=O)cc1 [CBK076587],"viability at 28.5 h, 10 µM",,92.8%
Cc1cc(C)n(CCCC(=O)N2CCC3(CC2)CC(=O)N(C)C3)n1 [CBK306905],"viability at 28.5 h, 10 µM",,90.5%
Cc1ccc(OCc2nnc(SCc3cccc(C#N)c3)n2Cc2ccccc2)cc1C [CBK266065],"viability at 28.5 h, 10 µM",,90.5%
Nc1nc(SCc2ccc(Cl)cc2)nc2sc3c(c12)CCN(Cc1ccccc1)C3 [CBK263724],"viability at 28.5 h, 10 µM",,88.1%
COc1cccc(NC(=O)CCN2C(=O)c3ccccc3S2(=O)=O)c1 [CBK266003],"viability at 28.5 h, 10 µM",,92.3%
CCO[C@H]1CN(C)C[C@@H]1NC(=O)c1cccc2c1NCCC2 [CBK307269],"viability at 28.5 h, 10 µM",,90.4%
O=C1OC(c2ccco2)=N/C1=C/Nc1ccc(C(=O)O)cc1 [CBK265195],"viability at 28.5 h, 10 µM",,104%
COc1cc(/C=N/Nc2ccc(C(=O)O)cc2)cc(Br)c1O [CBK263318],"viability at 28.5 h, 10 µM",,95.8%
CCN(CC)C(=O)CN1C(=O)N2CCN=C2c2ccccc21 [CBK283944],"viability at 28.5 h, 10 µM",,94.9%
NC1=NNC2=C(c3ccc(F)cc3)NNN12 [CBK093659],"viability at 28.5 h, 10 µM",,86%
O=C(CC1=C(O)C(=O)c2ccccc2C1=O)c1ccccc1 [CBK262002],"viability at 28.5 h, 10 µM",,80.5%
CC1=NN(c2ccc(S(N)(=O)=O)cc2)C(=O)/C1=C\c1ccc(-c2cccc(C(=O)O)c2)o1 [CBK263483],"viability at 28.5 h, 10 µM",,98%
CC1(c2ccccc2)CC(C)(C)N(C(=O)C2CCCO2)c2ccccc21 (stereo not drawn) [CBK059175],"viability at 28.5 h, 10 µM",,97.5%
Cc1ccc(CNC(=O)Cc2ccc(-c3ccc(CN4CCC(C)CC4)cc3)nc2)cc1F [CBK158402],"viability at 28.5 h, 10 µM",,97.4%
O=C1CCC(=O)N1CCOc1nccnc1OC1CCNCC1 [CBK075084T],"viability at 28.5 h, 10 µM",,101%
COc1ncc(-c2ccc(Nc3ccc(N4CCOCC4)cc3)nc2)c(OC)n1 [CBK036988],"viability at 28.5 h, 10 µM",,95%
COc1ccc2c(c1)cc(C(=O)NCCN1CCCCC1CO)n2C (stereo not drawn) [CBK306621],"viability at 28.5 h, 10 µM",,114%
CCc1ccc(CCC(=O)N2CCN(S(=O)(=O)c3sc(C(=O)O)c(C)c3C(=O)O)CC2)cc1 [CBK297138],"viability at 28.5 h, 10 µM",,111%
O=C(Nc1cccc(O)c1)c1ccc2c(c1)C(=O)N(c1cccc(N3C(=O)c4ccc(C(=O)Nc5cccc(O)c5)cc4C3=O)n1)C2=O [CBK261199],"viability at 28.5 h, 10 µM",,89.8%
CSc1nc2ccc(S(=O)(=O)NCCOc3ccc(Cl)cc3)cc2s1 [CBK268219],"viability at 28.5 h, 10 µM",,81.9%
O=C(CSc1nnc2scc(-c3ccccc3)n12)Nc1nsc(-c2ccccc2)n1 [CBK265672],"viability at 28.5 h, 10 µM",,103%
COc1ccc(Br)cc1S(=O)(=O)Nc1ccsc1C(=O)Nc1ccc(F)cc1 [CBK004593],"viability at 28.5 h, 10 µM",,97.7%
CC(=O)Nc1ccc(-c2ccc(C(=O)N3CCN(C(=O)N4CCCC4)CC3)cn2)cc1 [CBK160187],"viability at 28.5 h, 10 µM",,94.5%
CCC1CCCN(C(=O)Cc2c(C)nc(-c3cccnc3)[nH]c2=O)C1 (stereo not drawn) [CBK305801],"viability at 28.5 h, 10 µM",,91.7%
CCc1nnc2sc(-c3ccccc3Br)nn12 [CBK269533],"viability at 28.5 h, 10 µM",,67.4%
CCCc1c(C)nc2ccc(C)cc2c1SCC(=O)O [CBK263537],"viability at 28.5 h, 10 µM",,88.6%
Nc1ncc(-c2ccc(C(=O)N3CCOCC3)cc2)nc1C(=O)NC1CCCCC1 [CBK149160],"viability at 28.5 h, 10 µM",,89.3%
COc1ccc(S(=O)(=O)N2CCOCC2)cc1C(=O)Nc1ccc2c(c1)OCO2 [CBK265548],"viability at 28.5 h, 10 µM",,102%
O=C(CN1C(=O)[C@H]2CCCN2c2ncccc21)NCCc1c[nH]c2ccccc12 [CBK286206],"viability at 28.5 h, 10 µM",,107%
c1ccc(N2CCN(Cc3cncn3C3CCCCC3)CC2)nc1 [CBK307345],"viability at 28.5 h, 10 µM",,109%
CCn1c(C)nc2cc(NC(=O)c3ccc(CN(C)C)cc3)ccc21 [CBK281880],"viability at 28.5 h, 10 µM",,106%
CCn1ncc(CN2C3CCC2CC(O)(c2ccccc2F)C3)c1C (stereo not drawn) [CBK282663],"viability at 28.5 h, 10 µM",,85%
O=C(NCCc1ccccc1)c1c(NC(=O)C2COc3ccccc3O2)sc2c1CCCC2 (stereo not drawn) [CBK265522],"viability at 28.5 h, 10 µM",,89.8%
Cc1ccc(CN(C)C(C)C(=O)NCc2cccs2)cc1 (stereo not drawn) [CBK295663],"viability at 28.5 h, 10 µM",,103%
CSc1nnc2c(n1)OC(/C=C/c1ccccc1)N(C(C)=O)c1ccccc1-2 (stereo not drawn) [CBK264453],"viability at 28.5 h, 10 µM",,99.7%
O=C(O)c1ccc(Br)c(S(=O)(=O)NCc2ccccc2)c1 [CBK263202],"viability at 28.5 h, 10 µM",,90.8%
CC(C)COc1ccc(C(CC(=O)O)C(=O)O)cc1 (stereo not drawn) [CBK286759],"viability at 28.5 h, 10 µM",,103%
Cc1cc(Br)ccc1N1C(=O)NC(=O)/C(=C\c2ccc(-c3ccc(S(N)(=O)=O)cc3)o2)C1=O [CBK263413],"viability at 28.5 h, 10 µM","bulk resorufin, single well",97.4%
Cc1ccn(CCNC(=O)Cn2c3c(c4ccccc42)CCC3)n1 [CBK282708],"viability at 28.5 h, 10 µM",,86.5%
O=C(CCC1CCCC1)N1C[C@@H]2CCCCN(CC3CC3)[C@@H]2C1 [CBK285531],"viability at 28.5 h, 10 µM",,94%
Cc1oc(CSCc2cc(C(=O)O)c(C)o2)cc1C(=O)O [CBK264291],"viability at 28.5 h, 10 µM",,90.7%
CC(C)NC(=O)C1CCCN(c2nc3ccccc3n2C)C1 (stereo not drawn) [CBK282373],"viability at 28.5 h, 10 µM",,109%
CC1CCCCN1CC(=O)Nc1ccccc1Oc1ccccc1 (stereo not drawn) [CBK023182C],"viability at 28.5 h, 10 µM",,95.1%
Cc1cc(C(=O)N2CCC(Cc3ccccc3)CC2)n[nH]1 [CBK200187],"viability at 28.5 h, 10 µM",,84.2%
Fc1ccc(-c2cccc(N3CCN(c4ccccn4)CC3)n2)cc1Cl [CBK036877],"viability at 28.5 h, 10 µM",,104%
O=C(Nc1ccc(S(=O)(=O)Nc2nccs2)cc1)C1CC(=O)N(c2ccccc2)C1 (stereo not drawn) [CBK264732],"viability at 28.5 h, 10 µM",,104%
CN1CCOc2cc(S(=O)(=O)Nc3cccc(-c4cnco4)c3)ccc21 [CBK067119],"viability at 28.5 h, 10 µM",,82.9%
COCC(=O)Nc1c[nH]nc1C1CCCN(c2cccc(F)c2C#N)C1 (stereo not drawn) [CBK305395],"viability at 28.5 h, 10 µM",,86%
COc1ccc(C(C)C)cc1-c1cnc2[nH]c(=O)n(CCc3cccnc3)c2n1 [CBK064343],"viability at 28.5 h, 10 µM",,90.4%
CC(C)n1nccc1C(=O)NC1CCN(Cc2cccc(F)c2)CC1 [CBK282596],"viability at 28.5 h, 10 µM",,84.5%
COc1cccc(OCc2ccc(Cn3ccn(C(=O)CCCC(C)C)c3=O)cc2)c1 [CBK106638],"viability at 28.5 h, 10 µM",,90.5%
CCn1c(C)nc2cc(NC(=O)Cn3cccc(C(=O)NC4CCCCC4)c3=O)ccc21 [CBK286042],"viability at 28.5 h, 10 µM",,92.9%
COc1ccc(C(C)N(CCN2CCOCC2)C(=O)NCc2cccnc2)cc1OC (stereo not drawn) [CBK158986],"viability at 28.5 h, 10 µM",,114%
O=S(=O)(Nc1nnc(Cc2ccc(Cl)cc2)s1)c1ccc(Cl)cc1 [CBK200048],"viability at 28.5 h, 10 µM",,90.2%
O=C1CC[C@@H](C(=O)N2CCc3nc(-c4ccccc4F)sc3C2)N1 [CBK281891],"viability at 28.5 h, 10 µM",,82.1%
c1nnc(SCc2ccc(CSc3nnc[nH]3)cc2)[nH]1 [CBK263282],"viability at 28.5 h, 10 µM",,93.5%
COc1cccc2c1OC1(CCN(C(=O)Nc3ccc(F)cc3F)CC1)OC2 [CBK060689],"viability at 28.5 h, 10 µM","bulk resorufin, single well",100%
CCc1nc2c(C(=O)NCCNC(C)=O)cnn2c(CC)c1Cc1ccc(Cl)cc1 [CBK165730],"viability at 28.5 h, 10 µM",,86%
N/C(=N\OC(=O)CSc1ccccc1)c1ccccn1 [CBK266056],"viability at 28.5 h, 10 µM",,105%
CCc1c(C)nc2ccccc2c1SCCOC(=O)Nc1cccc([N+](=O)[O-])c1 [CBK155545T],"viability at 28.5 h, 10 µM",,106%
COc1cccc(NCc2nnc(SCC(=O)O)n2C2CCCCC2)c1 [CBK297499],"viability at 28.5 h, 10 µM",,95.6%
COc1ccc(S(=O)(=O)N2CCC(C(=O)O)CC2)cc1C(=O)O [CBK092181],"viability at 28.5 h, 10 µM",,91.4%
O=C(Nc1ccc2nonc2c1)N1CCOCC1 [CBK057530],"viability at 28.5 h, 10 µM",,90.8%
c1ccc(Cn2c(-c3ccccc3)c(-c3ccccc3)c3c2ncn2nc(-c4cccnc4)nc32)cc1 [CBK265359],"viability at 28.5 h, 10 µM",,109%
CCn1cncc1C(=O)N1CCCC1(C)C(=O)NC1CCCC1 (stereo not drawn) [CBK281376],"viability at 28.5 h, 10 µM",,81.2%
O=C(CSc1cccc2ccccc12)Nc1ccc([N+](=O)[O-])cc1O [CBK268696],"viability at 28.5 h, 10 µM",,115%
CN(C)S(=O)(=O)c1ccc(Cl)c(C(=O)Nc2cccc(O)c2)c1 [CBK265723],"viability at 28.5 h, 10 µM",,113%
CCOC(=O)C1=C(C)N(CCO)C(=O)NC1c1ccccc1Br (stereo not drawn) [CBK027192],"viability at 28.5 h, 10 µM",,104%
CCOc1ccc(C(=O)Nc2ccc(S(=O)(=O)N3CCN(C)CC3)cc2)cc1 [CBK269959],"viability at 28.5 h, 10 µM",,85.5%
CC(C)c1n[nH]c(C2CN(Cc3nc4c(F)cccc4[nH]3)CCO2)n1 (stereo not drawn) [CBK305225],"viability at 28.5 h, 10 µM",,98.8%
O=C(O)C(c1c[nH]c2cc(F)ccc12)N1CCN(CC(=O)N2CCOCC2)CC1 (stereo not drawn) [CBK286825],"viability at 28.5 h, 10 µM",,86.5%
CC(C)c1ccc(S(=O)(=O)N(CCC#N)Cc2ccccc2)cc1 [CBK043565],"viability at 28.5 h, 10 µM",,90.7%
Cc1ccc(S(=O)(=O)n2nncc2C)cc1 [CBK001921],"viability at 28.5 h, 10 µM",,111%
COc1ccc(N(CC(=O)O)S(=O)(=O)c2ccccc2)c(OC)c1 [CBK262415],"viability at 28.5 h, 10 µM",,108%
COc1ccc(-c2noc([C@@H]3Cc4[nH]cnc4CN3C(=O)CCC(=O)O)n2)cc1 [CBK288967],"viability at 28.5 h, 10 µM",,90.3%
c1ccc(-c2nc3cnccn3c2Nc2ccc3c(c2)OCCO3)cc1 [CBK287857],"viability at 28.5 h, 10 µM",,94.4%
Cc1cc(NC(=O)c2cccs2)nc2c1c(=O)oc1ccccc12 [CBK287439],"viability at 28.5 h, 10 µM",,91.8%
CCSc1nnc2c(n1)OC(C)Nc1ccccc1-2 (stereo not drawn) [CBK025684],"viability at 28.5 h, 10 µM",,102%
CC(O)(CC(=O)O)C12CC3CC(CC(C3)C1)C2 (stereo not drawn) [CBK261245],"viability at 28.5 h, 10 µM",,114%
O=C(N[C@H]1CCN2C(=O)c3cc(-c4ccc5c(c4)OCO5)ccc3NC(=O)[C@H]12)C1CCCC1 [CBK289333],"viability at 28.5 h, 10 µM",,103%
NC(=O)CSc1nnc2ccc3ccccc3n12 [CBK287794],"viability at 28.5 h, 10 µM",,110%
CN1CCN(C(=O)c2ccc(-c3cccc(C(F)(F)F)c3)nc2N2CCOCC2)CC1 [CBK106194],"viability at 28.5 h, 10 µM",,94%

# — publication PMC12040169 (PLOS Biology, 2025)
